Data from PubChem BioAssay (NCI).
Where “and” joins values, the source holds several entries; their conditions need not be identical. Identical values can stand only once.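 Interpolation was linear, between the two tested concentrations surrounding the appropriate level; five concentrations were tested over 48 hours in 96-well plates. The concentration for 50% growth inhibition is given as GI50. TGI is the concentration that stops growth completely.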 Where a SMILES comes first, the peptide text is derived from it. The star is where a group is joined. Palmitoyl = CCCCCCCCCCCCCCCC(=O)*

Tests used:
Assay in all cases: NCI tumour cell line growth inhibition, 48 h
HCT-15 colon = test system: HCT-15 colon
MALME-3M melanoma = test system: MALME-3M melanoma
MCF7 breast = test system: MCF7 breast
NCI-H226 lung = test system: NCI-H226 lung
NCI-H522 lung = test system: NCI-H522 lung
RXF 393 renal = test system: RXF 393 renal
SF-268 CNS = test system: SF-268 CNS
UO-31 renal = test system: UO-31 renal
MDA-MB-231 breast = test system: MDA-MB-231 breast
TK-10 renal = test system: TK-10 renal

Row | SMILES | GI50 (HCT-15 colon) | TGI (HCT-15 colon) | TGI (MALME-3M melanoma) | GI50 (MCF7 breast) | TGI (MCF7 breast) | GI50 (NCI-H226 lung) | TGI (NCI-H226 lung) | GI50 (NCI-H522 lung) | TGI (NCI-H522 lung) | GI50 (RXF 393 renal) | TGI (RXF 393 renal) | GI50 (SF-268 CNS) | TGI (SF-268 CNS) | GI50 (UO-31 renal) | TGI (UO-31 renal) | TGI (MDA-MB-231 breast) [µM] | TGI (TK-10 renal) [µM] | GI50 (MALME-3M melanoma) [µM] | GI50 (MDA-MB-231 breast) [µM] | GI50 (TK-10 renal) [µM]
1 | CC(=O)c1c(O)c(C)c(O)c2c1OC1=CC(=O)C(C(C)=O)C(=O)C12C (stereo unspecified) | 5.23 µM and 16.6 µM | 27.6 µM and 60.4 µM | 28.8 µM and 42.6 µM | 5.75 µM and 12 µM | 24.7 µM and 26 µM | 6.93 µM and 18.3 µM | 20.6 µM and 60.2 µM | 4.15 µM and 19.3 µM | 15.2 µM and 56.6 µM | 5.72 µM and 19.2 µM | 22.8 µM and 43.8 µM | 9.46 µM and 26.1 µM | 42.2 µM and 91.7 µM | 1.96 µM and 18.2 µM | 7.08 µM and 53.6 µM |  |  |  |  | 
2 | Fc1nc(F)nc(-c2c3ccccc3c3n2CCS3)n1 |  | > 100 µM | > 100 µM |  |  |  | > 100 µM |  | > 100 µM |  | > 100 µM |  | > 100 µM |  | > 100 µM |  |  |  |  | 
3 | C=C(CCC(C(=O)O)C1CCC2(C)C3=C(CCC12C)C1(C)CCC(O)C(C)(C)C1CC3)C(C)C (stereo unspecified) |  | 68.5 µM |  |  | > 100 µM |  | 96.3 µM |  | 50.3 µM |  |  |  | > 100 µM |  | > 100 µM | > 100 | > 100 |  |  | 
4 | COc1ccc(NC(=O)C2=C(SC)C(=O)N=C2N)cc1 |  | > 100 µM |  |  |  |  | > 100 µM |  |  |  | > 100 µM |  | > 100 µM |  | > 100 µM | > 100 | > 100 |  |  | 
5 | O=C(O)CCCc1nc2c(n1-c1ccccc1)C(=O)c1ccccc1C2=O |  | > 100 µM | 51.8 µM |  | > 100 µM |  |  |  | > 100 µM |  |  |  | > 100 µM |  | > 100 µM | > 100 | > 100 |  |  | 
6 | O=C(CCN1CCCCC1CO)Nc1ccc2c(c1)C(=O)c1ccc(NC(=O)CCN3CCCCC3CO)cc1C2=O (stereo unspecified) |  | 54 µM | 18.8 µM |  |  |  | 52.5 µM |  | 20.6 µM |  | 7.45 µM |  | 40.6 µM |  | 26.7 µM |  | 27.2 |  |  | 
7 | COc1cccc(N2N=C3c4ccccc4-n4c(nc5ccccc54)C3C2N)c1 (stereo unspecified) |  | > 100 µM | > 100 µM |  | > 100 µM |  |  |  | > 100 µM |  |  |  | > 100 µM |  | > 100 µM | > 100 | > 100 |  |  | 
8 | O=C1O/C(=C\c2ccc(O)cc2)C(c2ccc(O)c(Cl)c2)=C1Br |  | 26.7 µM | 29.5 µM |  | 37.1 µM |  |  |  | 20.5 µM |  | 59.8 µM |  | 45.2 µM |  | 36.4 µM | 59.9 | 49.9 |  |  | 
9 | CCOP(=O)(OCC)C(F)(F)CC1CCCCC1 |  | > 10 µM | > 10 µM |  | > 10 µM |  | > 10 µM |  |  |  | > 10 µM |  | > 10 µM |  | > 10 µM | > 10 | > 10 |  |  | 
10 | COCCCN1C(=O)C2c3[nH]c4ccccc4c3C3CCC(C(C)(C)C)CC3C2C1=O (stereo unspecified) |  | 44.7 µM |  |  | 56.2 µM |  | 60.6 µM |  | 55.4 µM |  | 51.3 µM |  | > 100 µM |  | > 100 µM | 56.3 | > 100 |  |  | 
11 | C/C(=N\O)c1ccc(Nc2c3ccccc3nc3occc23)cc1 |  | 4.07 µM | > 50 µM |  |  |  | > 25.9 µM |  | 0.287 µM |  | 0.614 µM |  | > 43.9 µM |  | > 50 µM | > 39.3 | 25.4 |  |  | 
12 | Cc1cnc2[nH]c(-c3ccccc3)cc(=O)c2c1 |  | 1.41 µM | > 100 µM |  | > 100 µM |  | 9.69 µM |  | 0.526 µM |  |  |  | > 100 µM |  | 68 µM | > 100 | 99.5 |  |  | 
13 | CCCCCCCCCCCCCCCC(=O)NC(CCCCN)C(=O)NCC(=O)NC(Cc1ccccc1)C(=O)N1CCCC1C(=O)NC(CO)C(=O)NC(Cc1ccc(O)cc1)C(=O)NC(CCCCN)C(=O)NC(CC(C)C)C(=O)NC(CCCN=C(N)N)C(=O)N1CCCC1C(=O)NCC(N)=O (stereo unspecified) (Palmitoyl-KGFPSYKLRPG-NH2; configuration not given here) |  |  | > 100 µM | 21.1 µM | 44 µM | 20.2 µM | 42.5 µM | 22.1 µM | 50.6 µM | 27.6 µM | 69.4 µM | 21.7 µM | 46.1 µM | 20.2 µM | 49.9 µM | 33.2 | 44.8 | > 100 | 17.3 | 21.9
14 | Cc1cc(S(=O)(=O)NC(=NCC(=O)NN)NN)c(S)cc1Cl |  | > 10 µM | > 10 µM |  | > 10 µM |  | > 10 µM |  | > 10 µM |  | > 10 µM |  | > 10 µM |  |  | > 10 | > 10 |  |  | 
15 | COc1cc2c(cc1OC)C1Cc3ccccc3CN1CCC2 (stereo unspecified) |  | > 100 µM | > 100 µM |  | > 100 µM |  | > 100 µM |  | > 100 µM |  | > 100 µM |  | > 100 µM |  |  | > 100 | > 100 |  |  | 
16 | O=C(CCCN1CCc2[nH]c3cc(F)ccc3c2C1)c1ccc(F)cc1 |  | 31.3 µM | 26 µM |  | 18.3 µM |  | 38.7 µM |  | 35.6 µM |  | 28.3 µM |  | 26.7 µM |  |  | 25.5 | 24.9 |  |  | 
17 | CC(=O)Nc1ncc2c(n1)-c1ccccc1OC2 |  | > 100 µM |  |  | > 100 µM |  | > 100 µM |  | > 100 µM |  | > 100 µM |  | > 100 µM |  | > 100 µM | > 100 | > 100 |  |  | 
18 | Cc1ccc(S(=O)(=O)NC(=O)NS(=O)(=O)O)cc1 |  | > 100 µM | > 100 µM |  | > 100 µM |  |  |  | > 100 µM |  | > 100 µM |  | > 100 µM |  | > 100 µM | > 100 | > 100 |  |  | 
19 | COc1ccc(-c2c(C(C)=O)c(C)n(C3OC(CO)C(O)C(O)C3O)c(=S)c2C#N)cc1 (stereo unspecified) |  | > 100 µM | > 100 µM |  | > 100 µM |  |  |  |  |  | > 100 µM |  | > 100 µM |  | > 100 µM | > 100 | > 100 |  |  | 
20 | C=C1C(=O)O[C@H]2C(=O)[C@H](C)CCC[C@@](C)(O)/C=C\C[C@@]3(C)O[C@@H]3C[C@@H]12 |  | 25.9 µM |  |  | 37.5 µM |  | > 100 µM |  | 9.08 µM |  |  |  | 50.8 µM |  | 27.6 µM | 43.6 | 15.1 |  |  | 
21 | CSc1nc2c(ncn2C2OCC(O)C(O)C2O)c(=O)[nH]1 (stereo unspecified) |  | > 100 µM | > 100 µM |  | > 100 µM |  | > 100 µM |  | > 100 µM |  | > 100 µM |  | > 100 µM |  | > 100 µM |  |  |  |  | 
22 | NC(CO)c1ccccc1 (stereo unspecified) |  | > 100 µM | > 100 µM |  |  |  | > 100 µM |  | > 100 µM |  | > 100 µM |  | > 100 µM |  | > 100 µM |  | > 100 |  |  | 
